Data: patent US4504655A, “Substances potentiating the activity of antibiotics and their production” (Takeda Chemical Industries, Ltd., priority 1981, dated 1985)
“And” between values parts separate entries of the source, which are not always exact repeats. Identical values can stand only once. “Also recorded” adds a separate entry of the source. Counter-ions that a name gives are not always drawn.

Columns and labels:
[1] = system: Escherichia coli IFO 12734; assay: Antibiotic-potentiating activity, paper disc growth inhibition zone, Escherichia coli IFO 12734; assay type: cell-based
Protocol: The potency of the compound of the formula (II) can be determined, for instance, by the cup method or paper disc method using bouillon agar containing 0.05 μg/ml of cefmenoxime with Escherichia coli IFO 12734 as the test organism. […]
(§1) *The test was performed using a bouillon agar medium containing the
antibiotic as specified and a paper disc, 8 mm in diameter.
**A paper disc, 8 mm in diameter, was impregnated with 25 μl of the […]

[2] = system: Proteus mirabilis ATCC 21100; assay: Antibiotic-potentiating activity, paper disc growth inhibition zone, Proteus mirabilis ATCC 21100; assay type: cell-based
Protocol: as §1
antibiotic as specified and a paper disc, 8 mm in diameter. […]
*The test was performed under the same conditions as noted for Table 1
except for the test organism and the concentration of each coexisting

[3] = Stability in aqueous solution; assay type: physicochemical; settings: pH 3-9, heating at 60° C. for 10 minutes
Solubility = assay type: physicochemical
Escherichia coli = assay: Observation of the culture broths under a phase contrast microscope; assay type: cell-based; settings: for Form of cells under phase contrast microscope: antibiotic alone, F2 or F3 not added
Protocol: (§2) To 8 ml of YAB medium (1.75% Difco antibiotic medium No. 3, 0.5% Difco yeast extract) containing 12% (w/v) of sucrose, there were added 1 ml of water, 50 μg/ml cephalexin solution or 10 μg/ml cefmenoxime solution, and the medium was inoculated with 1 ml of a preculture in YAB medium at an early logarithmic growth phase and incubated with shaking at 37° C. for 2 hours. Thereafter, the absorbance of the culture broth was measured at 600 nm using a Shimadzu-Bausch & Lomb Spectronic 20 colorimeter.

[4] = system: Escherichia coli IFO 12734; assay: Inhibition of growth of Escherichia coli in liquid culture (absorbance at 600 nm); assay type: cell-based
Protocol: Table 5: Inhibition of growth of Escherichia coli IFO 12734 in the copresence of F2 (obtained in Example 1) and cephalexin or cefmenoxime.
as §2

[5] = system: Escherichia coli IFO 12734; assay: as above; assay type: cell-based; remark: listed apart in the source
β-lactamases = settings: D. A. Leigh et al., 1981; cited from earlier work
[6] = system: β-lactamase producing bacteria; settings: D. A. Leigh et al., 1981; cited from earlier work
[7] = petroleum ether, hexane, diethyl ether, benzene, ethyl acetate and chloroform
[8] = F3 of Example 5, 1 μg/ml in test solution, no addition
[9] = F3 of Example 5, 5 μg/ml in test solution, no addition
[10] = F3 of Example 5, 25 μg/ml in test solution, no addition
[11] = F3 of Example 5, 125 μg/ml in test solution, no addition
[12] = F3 of Example 5, 1000 μg/ml in test solution, no addition

SMILES: CC1(C)S[C@@H]2[C@H](/N=C/N3CCCCCC3)C(=O)N2[C@H]1C(=O)O [mecillinam, reference compound]
- Diameter of growth inhibition zone ([1]; 0.03 μg/ml mecillinam alone (F2, F3 or F4 0 μg/ml)): < 8 mm
- Diameter of growth inhibition zone ([2]; 0.05 μg/ml mecillinam alone (F2 or F3 0 μg/ml)): < 8 mm

SMILES: CC(=O)NC1C(OC2CC(C(=O)NCCS(=O)(=O)O)NC2CO)OC(CO)C(OS(=O)(=O)O)C1O (stereo not shown) [disodium salt of F2]
- Stability [3]: Stable
- Solubility (Solubility; acetone): Insoluble
- Solubility (Solubility; dimethyl sulfoxide): soluble
- Solubility (Solubility; ethanol and pyridine): spargingly soluble; also recorded: sparingly soluble
- Solubility (Solubility; methanol): spargingly soluble; also recorded: sparingly soluble
- Solubility (Solubility; [7]): Insoluble
- Solubility (Solubility; water): readily soluble

SMILES: CO/N=C(\C(=O)N[C@@H]1C(=O)N2C(C(=O)O)=C(CSc3nnnn3C)CS[C@H]12)c1csc(N)n1 [cefmenoxime, reference compound]
- Diameter of growth inhibition zone ([1]; 0.05 μg/ml cefmenoxime alone (F2, F3 or F4 0 μg/ml)): < 8 mm
- Form of cells under phase contrast microscope (Escherichia coli): much elongated form
- Absorbance at 600 nm ([4]; 1 μg/ml cefmenoxime alone (F2 or F3 0 μg/ml)): 1.95 and 1.90 and 2.9
- Diameter of growth inhibition zone ([2]; 0.01 μg/ml cefmenoxime alone (F2 or F3 0 μg/ml)): < 8 mm

SMILES: CC(=O)NC1C(OC2CC(C(=O)O)NC2CO)OC(CO)C(OS(=O)(=O)O)C1O (stereo not shown) [F3]
- Absorbance at 600 nm ([5]; final F3 (Example 5) 1 μg/ml, 1 μg/ml of cefmenoxime): 2.2
- Absorbance at 600 nm ([5]; final F3 (Example 5) 1 μg/ml, no addition): 3.7
- Absorbance at 600 nm ([5]; final F3 (Example 5) 10 μg/ml, 1 μg/ml of cefmenoxime): 0.6
- Absorbance at 600 nm ([5]; final F3 (Example 5) 10 μg/ml, no addition): 3.7
- Absorbance at 600 nm ([5]; final F3 (Example 5) 100 μg/ml, 1 μg/ml of cefmenoxime): 0.6
- Absorbance at 600 nm ([5]; final F3 (Example 5) 100 μg/ml, no addition): 3.7
- Diameter of growth inhibition zone ([1]; F3 of Example 5, 1 μg/ml in test solution, 0.03 μg/ml of mecillinam): < 8 mm
- Diameter of growth inhibition zone ([1]; F3 of Example 5, 1 μg/ml in test solution, 0.05 μg/ml of cefmenoxime): 10 mm
- Diameter of growth inhibition zone [1, 8]: < 8 mm
- Diameter of growth inhibition zone ([1]; F3 of Example 5, 5 μg/ml in test solution, 0.03 μg/ml of mecillinam): < 8 mm
- Diameter of growth inhibition zone ([1]; F3 of Example 5, 5 μg/ml in test solution, 0.05 μg/ml of cefmenoxime): 12.5 mm
- Diameter of growth inhibition zone [1, 9]: < 8 mm
- Diameter of growth inhibition zone ([1]; F3 of Example 5, 25 μg/ml in test solution, 0.03 μg/ml of mecillinam): 9 mm
- Diameter of growth inhibition zone ([1]; F3 of Example 5, 25 μg/ml in test solution, 0.05 μg/ml of cefmenoxime): 15 mm
- Diameter of growth inhibition zone [1, 10]: < 8 mm
- Diameter of growth inhibition zone ([1]; F3 of Example 5, 125 μg/ml in test solution, 0.03 μg/ml of mecillinam): 17.5 mm
- Diameter of growth inhibition zone ([1]; F3 of Example 5, 125 μg/ml in test solution, 0.05 μg/ml of cefmenoxime): 26 mm
- Diameter of growth inhibition zone [1, 11]: < 8 mm
- Diameter of growth inhibition zone ([1]; F3 of Example 5, 1000 μg/ml in test solution, 0.03 μg/ml of mecillinam): 28.5 mm
- Diameter of growth inhibition zone ([1]; F3 of Example 5, 1000 μg/ml in test solution, 0.05 μg/ml of cefmenoxime): 38 mm
- Diameter of growth inhibition zone [1, 12]: < 8 mm
- Swelling and bacteriolysis under phase contrast microscope (Escherichia coli; in the presence of cephalexin or cefmenoxime): partial swelling occurred and bacteriolysis proceeded
- Elongation of cells under phase contrast microscope (Escherichia coli; in the presence of cephalexin or cefmenoxime, in dependence on the addition level): elongation was inhibited
- Inhibition of growth of Escherichia coli ([4]; in the presence of cephalexin or cefmenoxime, decrease in absorbance): inhibits the growth of Escherichia coli
- Diameter of growth inhibition zone ([2]; F3 of Example 5, 1 μg/ml in test solution, 0.01 μg/ml of cefmenoxime): 9 mm
- Diameter of growth inhibition zone ([2]; F3 of Example 5, 1 μg/ml in test solution, 0.05 μg/ml of mecillinam): < 8 mm
- Diameter of growth inhibition zone [2, 8]: < 8 mm
- Diameter of growth inhibition zone ([2]; F3 of Example 5, 5 μg/ml in test solution, 0.01 μg/ml of cefmenoxime): 12 mm
- Diameter of growth inhibition zone ([2]; F3 of Example 5, 5 μg/ml in test solution, 0.05 μg/ml of mecillinam): 9 mm
- Diameter of growth inhibition zone [2, 9]: < 8 mm
- Diameter of growth inhibition zone ([2]; F3 of Example 5, 25 μg/ml in test solution, 0.01 μg/ml of cefmenoxime): 21 mm
- Diameter of growth inhibition zone ([2]; F3 of Example 5, 25 μg/ml in test solution, 0.05 μg/ml of mecillinam): 13.5 mm
- Diameter of growth inhibition zone [2, 10]: < 8 mm
- Diameter of growth inhibition zone ([2]; F3 of Example 5, 125 μg/ml in test solution, 0.01 μg/ml of cefmenoxime): 28.5 mm
- Diameter of growth inhibition zone ([2]; F3 of Example 5, 125 μg/ml in test solution, 0.05 μg/ml of mecillinam): 19 mm
- Diameter of growth inhibition zone [2, 11]: < 8 mm
- Diameter of growth inhibition zone ([2]; F3 of Example 5, 1000 μg/ml in test solution, 0.01 μg/ml of cefmenoxime): 32.5 mm
- Diameter of growth inhibition zone ([2]; F3 of Example 5, 1000 μg/ml in test solution, 0.05 μg/ml of mecillinam): 30 mm
- Diameter of growth inhibition zone [2, 12]: < 8 mm

SMILES: CC(=O)NC1C(OC2CC(C(=O)NCCS(=O)(=O)O)NC2CO)OC(CO)C(O)C1O (stereo not shown) [F4]
- Diameter of growth inhibition zone ([1]; F4 of Example 7, 10 μg/ml in test solution, 0.03 μg/ml mecillinam): < 8 mm
- Diameter of growth inhibition zone ([1]; F4 of Example 7, 10 μg/ml in test solution, 0.05 μg/ml cefmenoxime): < 8 mm
- Diameter of growth inhibition zone ([1]; F4 of Example 7, 10 μg/ml in test solution, no addition): < 8 mm
- Diameter of growth inhibition zone ([1]; F4 of Example 7, 100 μg/ml in test solution, 0.03 μg/ml mecillinam): 13 mm
- Diameter of growth inhibition zone ([1]; F4 of Example 7, 100 μg/ml in test solution, 0.05 μg/ml cefmenoxime): 15 mm
- Diameter of growth inhibition zone ([1]; F4 of Example 7, 100 μg/ml in test solution, no addition): < 8 mm
- Diameter of growth inhibition zone ([1]; F4 of Example 7, 1000 μg/ml in test solution, 0.03 μg/ml mecillinam): 23 mm
- Diameter of growth inhibition zone ([1]; F4 of Example 7, 1000 μg/ml in test solution, 0.05 μg/ml cefmenoxime): 26 mm
- Diameter of growth inhibition zone ([1]; F4 of Example 7, 1000 μg/ml in test solution, no addition): < 8 mm

SMILES: CC(=O)NC1C(OC2CC(C(=O)NCCS(=O)(=O)O)NC2CO)OC(CO)C(OS(=O)(=O)O)C1O (stereo not shown) [monosodium salt of F2]
- Stability [3]: Stable
- Solubility (Solubility; acetone): sparingly soluble
- Solubility (Solubility; dimethyl sulfoxide): soluble
- Solubility (Solubility; ethanol and pyridine): sparingly soluble
- Solubility (Solubility; methanol): soluble
- Solubility (Solubility; [7]): Insoluble
- Solubility (Solubility; water): readily soluble

SMILES: O=C(O)[C@H]1/C(=C/CO)O[C@@H]2CC(=O)N21 [clavulanic acid]
- Inactivation of β-lactam antibiotics by β-lactamases (β-lactamases): prevents inactivation
- Potentiation of activity of β-lactam antibiotics against β-lactamase producing bacteria [6]: synergistically potentiates their activity

SMILES: CC(=O)NC1C(OC2CC(C(=O)O)NC2CO)OC(CO)C(OS(=O)(=O)O)C1O (stereo not shown) [F3 monosodium salt]
- Stability [3]: Stable
- Solubility (Solubility; acetone): only sparingly soluble
- Solubility (Solubility; dimethyl sulfoxide): soluble
- Solubility (Solubility; ethanol and pyridine): only sparingly soluble
- Solubility (Solubility; methanol): soluble
- Solubility (Solubility; [7]): Insoluble
- Solubility (Solubility; water): readily soluble

SMILES: CC1=C(C(=O)O)N2C(=O)[C@@H](NC(=O)[C@H](N)c3ccccc3)[C@H]2SC1 [cephalexin, reference compound]
- Form of cells under phase contrast microscope (Escherichia coli): much elongated form
- Absorbance at 600 nm ([4]; 5 μg/ml cephalexin alone (F2 0 μg/ml)): 2.35 and 2.15
